Measurements published in paper PMC10436550, “Subacute toxicity evaluations of LPM3480392 in rats, a full µ-opioid receptor biased agonist” (Frontiers in Pharmacology, 2023).

Assay: Body weight, 4-week subacute toxicity study
Type: in vivo, Sprague Dawley (SD) rats
Description: Body weight was recorded twice a week during the dosing phase and then once a week during the recovery phase. Terminal body weight was recorded before each necropsy for calculating the organ weight ratios.

[1] = female rats, 0.6 mg/kg/day, Day 6
[2] = female rats, 0.6 mg/kg/day, Day 9
[3] = female rats, 0.6 mg/kg/day, Day 13
[4] = female rats, 0.6 mg/kg/day, Day 16
[5] = female rats, 0.6 mg/kg/day, Day 20
[6] = female rats, 0.6 mg/kg/day, Day 23
[7] = female rats, 0.6 mg/kg/day, Day 27
[8] = female rats, 0.6 mg/kg/day, Prior to 1st dosing
[9] = female rats, 0.6 mg/kg/day, Recovery day 5
[10] = female rats, 0.6 mg/kg/day, Recovery day 12
[11] = female rats, 0.6 mg/kg/day, Recovery day 19
[12] = female rats, 0.6 mg/kg/day, Recovery day 26
[13] = female rats, 1.2 mg/kg/day, Day 6
[14] = female rats, 1.2 mg/kg/day, Day 9
[15] = female rats, 1.2 mg/kg/day, Day 13
[16] = female rats, 1.2 mg/kg/day, Day 16
[17] = female rats, 1.2 mg/kg/day, Day 20
[18] = female rats, 1.2 mg/kg/day, Day 23
[19] = female rats, 1.2 mg/kg/day, Day 27
[20] = female rats, 1.2 mg/kg/day, Prior to 1st dosing
[21] = female rats, 1.2 mg/kg/day, Recovery day 5
[22] = female rats, 1.2 mg/kg/day, Recovery day 12
[23] = female rats, 1.2 mg/kg/day, Recovery day 19
[24] = female rats, 1.2 mg/kg/day, Recovery day 26
[25] = female rats, 2.4 mg/kg/day, Day 6
[26] = female rats, 2.4 mg/kg/day, Day 9
[27] = female rats, 2.4 mg/kg/day, Day 13
[28] = female rats, 2.4 mg/kg/day, Day 16
[29] = female rats, 2.4 mg/kg/day, Day 20
[30] = female rats, 2.4 mg/kg/day, Day 23
[31] = female rats, 2.4 mg/kg/day, Day 27
[32] = female rats, 2.4 mg/kg/day, Prior to 1st dosing
[33] = female rats, 2.4 mg/kg/day, Recovery day 5
[34] = female rats, 2.4 mg/kg/day, Recovery day 12
[35] = female rats, 2.4 mg/kg/day, Recovery day 19
[36] = female rats, 2.4 mg/kg/day, Recovery day 26
[37] = male rats, 0.6 mg/kg/day, Day 6
[38] = male rats, 0.6 mg/kg/day, Day 9
[39] = male rats, 0.6 mg/kg/day, Day 13
[40] = male rats, 0.6 mg/kg/day, Day 16
[41] = male rats, 0.6 mg/kg/day, Day 20
[42] = male rats, 0.6 mg/kg/day, Day 23
[43] = male rats, 0.6 mg/kg/day, Day 27
[44] = male rats, 0.6 mg/kg/day, Prior to 1st dosing
[45] = male rats, 0.6 mg/kg/day, Recovery day 5
[46] = male rats, 0.6 mg/kg/day, Recovery day 12
[47] = male rats, 0.6 mg/kg/day, Recovery day 19
[48] = male rats, 0.6 mg/kg/day, Recovery day 26
[49] = male rats, 1.2 mg/kg/day, Day 6
[50] = male rats, 1.2 mg/kg/day, Day 9
[51] = male rats, 1.2 mg/kg/day, Day 13
[52] = male rats, 1.2 mg/kg/day, Day 16
[53] = male rats, 1.2 mg/kg/day, Day 20
[54] = male rats, 1.2 mg/kg/day, Day 23
[55] = male rats, 1.2 mg/kg/day, Day 27
[56] = male rats, 1.2 mg/kg/day, Prior to 1st dosing
[57] = male rats, 1.2 mg/kg/day, Recovery day 5
[58] = male rats, 1.2 mg/kg/day, Recovery day 12
[59] = male rats, 1.2 mg/kg/day, Recovery day 19
[60] = male rats, 1.2 mg/kg/day, Recovery day 26
[61] = male rats, 2.4 mg/kg/day, Day 6
[62] = male rats, 2.4 mg/kg/day, Day 9
[63] = male rats, 2.4 mg/kg/day, Day 13
[64] = male rats, 2.4 mg/kg/day, Day 16
[65] = male rats, 2.4 mg/kg/day, Day 20
[66] = male rats, 2.4 mg/kg/day, Day 23
[67] = male rats, 2.4 mg/kg/day, Day 27
[68] = male rats, 2.4 mg/kg/day, Prior to 1st dosing
[69] = male rats, 2.4 mg/kg/day, Recovery day 5
[70] = male rats, 2.4 mg/kg/day, Recovery day 12
[71] = male rats, 2.4 mg/kg/day, Recovery day 19
[72] = male rats, 2.4 mg/kg/day, Recovery day 26

Fc1ccc([C@]2(CCNCc3cccc(Cl)c3)CCO[C@]3(CCOC3)C2)nc1 [LPM3480392]
Body weight [1]: 194.0 ± 11.4 g | Body weight change rate [1]: 4.64% | Body weight [2]: 201.1 ± 13.7 g | Body weight change rate [2]: 5.62% | Body weight [3]: 209.5 ± 13.4 g | Body weight change rate [3]: 7.05% | Body weight [4]: 214.4 ± 13.2 g | Body weight change rate [4]: 6.19% | Body weight [5]: 224.2 ± 15.1 g | Body weight change rate [5]: 6.91% | Body weight [6]: 228.1 ± 15.3 g | Body weight change rate [6]: 5.65% | Body weight [7]: 236.2 ± 15.3 g | Body weight change rate [7]: 8.05% | Body weight [8]: 176.9 ± 7.3 g | Body weight change rate [8]: −0.67% | Body weight [9]: 243.5 ± 9.3 g | Body weight change rate [9]: 5.96% | Body weight [10]: 251.6 ± 10.2 g | Body weight change rate [10]: 6.38% | Body weight [11]: 258.8 ± 12.5 g | Body weight change rate [11]: 2.70% | Body weight [12]: 265.5 ± 15.7 g | Body weight change rate [12]: 3.11% | Body weight [13]: 194.9 ± 10.5 g | Body weight change rate [13]: 5.12% | Body weight [14]: 200.1 ± 12.1 g | Body weight change rate [14]: 5.09% | Body weight [15]: 215.3 ± 11.3 g | Body weight change rate [15]: 10.02% | Body weight [16]: 218.9 ± 12.3 g | Body weight change rate [16]: 8.42% | Body weight [17]: 221.5 ± 14.8 g | Body weight change rate [17]: 5.63% | Body weight [18]: 232.4 ± 16.4 g | Body weight change rate [18]: 7.64% | Body weight [19]: 237.2 ± 15.4 g | Body weight change rate [19]: 8.51% | Body weight [20]: 175.3 ± 7.7 g | Body weight change rate [20]: −1.57% | Body weight [21]: 237.7 ± 13.0 g | Body weight change rate [21]: 3.44% | Body weight [22]: 244.8 ± 13.2 g | Body weight change rate [22]: 3.51% | Body weight [23]: 259.9 ± 16.5 g | Body weight change rate [23]: 3.13% | Body weight [24]: 261.8 ± 22.7 g | Body weight change rate [24]: 1.67% | Body weight [25]: 194.7 ± 11.9 g | Body weight change rate [25]: 5.02% | Body weight [26]: 198.8 ± 14.7 g | Body weight change rate [26]: 4.41% | Body weight [27]: 211.2 ± 13.0 g | Body weight change rate [27]: 7.92% | Body weight [28]: 209.1 ± 13.2 g | Body weight change rate [28]: 3.57% | Body weight [29]: 220.8 ± 15.5 g | Body weight change rate [29]: 5.29% | Body weight [30]: 221.7 ± 19.8 g | Body weight change rate [30]: 2.69% | Body weight [31]: 230.9 ± 19.3 g | Body weight change rate [31]: 5.63% | Body weight [32]: 179.1 ± 8.3 g | Body weight change rate [32]: 0.56% | Body weight [33]: 230.1 ± 19.1 g | Body weight change rate [33]: 0.13% | Body weight [34]: 241.1 ± 21.0 g | Body weight change rate [34]: 1.95% | Body weight [35]: 253.1 ± 25.8 g | Body weight change rate [35]: 0.44% | Body weight [36]: 261.1 ± 25.5 g | Body weight change rate [36]: 1.40% | Body weight [37]: 247.1 ± 9.6 g | Body weight change rate [37]: 1.31% | Body weight [38]: 268.8 ± 11.6 g | Body weight change rate [38]: 2.32% | Body weight [39]: 292.6 ± 13.5 g | Body weight change rate [39]: 0.62% | Body weight [40]: 300.8 ± 12.5 g | Body weight change rate [40]: −2.12% | Body weight [41]: 321.4 ± 15.8 g | Body weight change rate [41]: −0.22% | Body weight [42]: 332.6 ± 17.3 g | Body weight change rate [42]: −0.33% | Body weight [43]: 349.9 ± 20.1 g | Body weight change rate [43]: −0.20% | Body weight [44]: 213.2 ± 11.1 g | Body weight change rate [44]: 0.66% | Body weight [45]: 367.7 ± 23.5 g | Body weight change rate [45]: −4.86% | Body weight [46]: 395.5 ± 24.5 g | Body weight change rate [46]: −4.63% | Body weight [47]: 415.6 ± 25.4 g | Body weight change rate [47]: −5.29% | Body weight [48]: 442.1 ± 24.4 g | Body weight change rate [48]: −4.22% | Body weight [49]: 243.6 ± 12.3 g | Body weight change rate [49]: −0.12% | Body weight [50]: 247.3 ± 10.6 g | Body weight change rate [50]: −5.86% | Body weight [51]: 281.5 ± 15.7 g | Body weight change rate [51]: −3.20% | Body weight [52]: 297.1 ± 19.6 g | Body weight change rate [52]: −3.32% | Body weight [53]: 313.4 ± 22.6 g | Body weight change rate [53]: −2.70% | Body weight [54]: 325.9 ± 21.5 g | Body weight change rate [54]: −2.34% | Body weight [55]: 339.3 ± 23.2 g | Body weight change rate [55]: −3.22% | Body weight [56]: 213.2 ± 9.4 g | Body weight change rate [56]: 0.66% | Body weight [57]: 361.2 ± 14.2 g | Body weight change rate [57]: −6.55% | Body weight [58]: 388.0 ± 14.5 g | Body weight change rate [58]: −6.44% | Body weight [59]: 416.4 ± 19.3 g | Body weight change rate [59]: −5.10% | Body weight [60]: 444.3 ± 23.9 g | Body weight change rate [60]: −3.75% | Body weight [61]: 234.0 ± 21.8 g | Body weight change rate [61]: −4.06% | Body weight [62]: 249.9 ± 31.9 g | Body weight change rate [62]: −4.87% | Body weight [63]: 272.4 ± 27.9 g | Body weight change rate [63]: −6.33% | Body weight [64]: 281.1 ± 31.2 g | Body weight change rate [64]: −8.53% | Body weight [65]: 297.6 ± 36.8 g | Body weight change rate [65]: −7.61% | Body weight [66]: 299.3 ± 36.1 g | Body weight change rate [66]: −10.31% | Body weight [67]: 315.4 ± 36.4 g | Body weight change rate [67]: −10.04% | Body weight [68]: 213.9 ± 12.9 g | Body weight change rate [68]: 0.99% | Body weight [69]: 329.2 ± 48.5 g | Body weight change rate [69]: −14.83% | Body weight [70]: 365.9 ± 50.0 g | Body weight change rate [70]: −11.77% | Body weight [71]: 386.7 ± 51.8 g | Body weight change rate [71]: −11.87% | Body weight [72]: 413.2 ± 56.3 g | Body weight change rate [72]: −10.49%
